Test results published in US20080305085A1, “Compositions And Methods For Stem Cell Expansion” (priority 2004, published 2008).

What was measured:
Sca1+c-kit+lin− cells = experiment: In vivo PTH treatment, Sca1+c-kit+lin− cells in bone marrow by flow cytometry; design: species or system mouse; conditions: for magnitude of Sca1+c-kit+lin− increase induced by PTH, absolute number / magnitude of Sca1+c-kit+lin− increase induced by PTH, proportion: four weeks of PTH
Procedure: FIG. 6 is a graph showing that OPN deficiency permits increased primitive hematopoietic cell compartment expansion after niche activation by parathyroid hormone (PTH): OPN^+/+ and OPN^−/− mice were treated with PTH by daily injection for 4 weeks. The bone marrow was analyzed by flow cytometry.
Parathyroid hormone is capable of activating niche osteoblasts and expanding the number of stem cells in vitro and in vivo in a Notch mediated manner. […] Stimulation with PTH increases OPN production leading to the hypothesis that the degree of stem cell expansion possible by PTH niche activation may be restricted by OPN. Using the OPN null or wild type mouse, the number of primitive cells was assessed following four weeks of PTH stimulation. A difference in the number of Sca1^+c-kit^+lin^− was noted between the OPN null and wild type mouse prior to PTH (FIG. 6). With PTH treatment, there was an increase in the Sca1^+c-kit^+lin^− cells in each genotypic background.
6-8 week old wild-type or null male mice were injected with rat PTH (1-34) (Bachem, Torrance, Calif.) (80 μg/Kg of body weight) or vehicle alone intraperitoneally 5×/week for 4 weeks (n=4-6/group). Animals were sacrificed and bone marrow cell isolated and analyzed as above.
Flow cytometry was used to quantify the hematopoietic cells at different stages in the peripheral blood and the bone marrow of the transplanted animals. Bone marrow nucleated cells were labeled with the leukocyte antibodies Ly5.1-PE and Ly5.2-biotin (Pharmingen, San Diego, Calif.), lineage antibodies (CD3-PerCP, CD4-PE, B220-PE, Ter119-PE, (Pharmingen, San Diego, Calif.), CD8-Tri, Gr-1-Tri, Mac1-PE (Caltag)), and stem cell markers (Sca1-Tri and PE, c-kit-Tri (Caltag, Burlingame, Calif.)). To quantify the enriched stem cell phenotype (Sca1^+lin^−) in primary animals and in transplanted animals bone marrow cells were stained with biotinylated lineage antibodies (CD3, Ter119 (Pharmingen, San Diego, Calif.), CD4, CD8, B220, IgM, Gr-1 and Mac1 (Caltag, Burlingame, Calif.)), c-kit-APC (Pharmingen, San Diego, Calif.) and Sca1-PE (Caltag, Burlingame, Calif.). The cells were analyzed after labeling with the secondary antibody Streptavidin-PerCP (Becton Dickinson, Franklin Lakes, N.J.). For cell cycle analyses bone marrow cells were incubated with stem cell markers and the DNA dye Hoechst33342. The proportion of apoptotic cells were measured by staining with AnnexinV (Caltag, Burlingame, Calif.) and the DNA-dye 7-AAD (Sigma, St. Louis, Mo.).

[1] = tested on: lin− primitive hematopoietic cells; experiment: Apoptosis by AnnexinV / 7-AAD flow cytometry of cells cultured with OPN; type: cell-based, mouse; conditions: cultured with OPN 1 μg/ml versus without OPN
Procedure: (§1) FIGS. 5A-5C are graphs showing that soluble OPN induces apoptosis of primitive hematopoietic cells. Sca1^+lin^− cells were isolated from the bone marrow of C57B1/6 mice and cultured in IMDM containing 10% fetal calf serum (FCS), stem cell factor (SCF), Flt-3, thrombopoietin (TPO) and IL-3 with or without OPN [1 μg/ml]. After 7 days the cells were counted and analyzed in functional hematopoietic assays.
The fraction of apoptotic cells was next analyzed by staining with lineage markers, 7-AAD and AnnexinV. […] OPN exerted a pro-apoptotic effect on primitive cells potentially constraining the size of the stem cell pool.
Flow cytometry was used to quantify the hematopoietic cells at different stages in the peripheral blood and the bone marrow of the transplanted animals. […] To quantify the enriched stem cell phenotype (Sca1^+lin^−) in primary animals and in transplanted animals bone marrow cells were stained with biotinylated lineage antibodies (CD3, Ter119 (Pharmingen, San Diego, Calif.), CD4, CD8, B220, IgM, Gr-1 and Mac1 (Caltag, Burlingame, Calif.)), c-kit-APC (Pharmingen, San Diego, Calif.) and Sca1-PE (Caltag, Burlingame, Calif.). The cells were analyzed after labeling with the secondary antibody Streptavidin-PerCP (Becton Dickinson, Franklin Lakes, N.J.). […]

Jagged1 = Jagged1 expression by RT-PCR in wild-type bone marrow stroma exposed to OPN ex vivo; type: cell-based, mouse; conditions: OPN 1 ug/ml, four hours ex vivo
Text: FIGS. 4A-4F are graphs showing that OPN^−/− bone marrow has unaltered cell cycle profiles associated with increased stromal Jagged1 and Angiopoietin-1 expression and reduced primitive cell apoptosis. FIG. 4A is a graph showing that bone marrow Sca1^+ c-kit^+lin^− cells that show bright staining for Hoechst33342 are cells in the G2/M phase of the cell cycle (n=3 pairs). […] Data are the result of two independent experiments with four mice per group in each experiment. […] Data were normalized to an intrasample GAPDH standard and the results of the OPN^−/− versus OPN^+/+ cells were compared by ratio. […] Data are normalized against GAPDH expression measured by RT PCR. […] AnnexinV-positive/7-AAD-negative apoptotic Sca1^+c-kit^+lin^− cells are shown (n=4 pairs). […] Analyses were performed on the lin^− fraction twelve weeks after transplantation (n=4).
Stem cell expansion may occur without increased proliferation in the context of Notch1 activation where stem cell self renewal is favored over differentiation^23,24. Activation of Notch1 on primitive hematopoietic cells in vivo was previously shown to result in an increase in primitive cells, but reduced progenitor cells similar phenotype to that reported herein^23. […]
The expression of Jagged1, Angiopoietin1 and N-cadherin in bone marrow stroma cells was measured by RT-PCR. […]

[2] = tested on: Sca1+lin− bone marrow cells; experiment: Culture of Sca1+lin− bone marrow cells with or without soluble OPN for 7 days, cells counted; type: cell-based, mouse; conditions: Sca1+lin− cells of C57B1/6 mice, 7 days in SCF, Flt-3, TPO, IL-3, OPN 1 μg/ml, versus without OPN
Procedure: as §1
(§2) Exogenous OPN was used to assess its potential role in regulating primitive cells directly rather than through the altered expression of other regulators within the niche. Initial experiments cultured Sca1^+lin^− bone marrow cells of C57B1/6 mice in medium containing stem cell factor (SCF), Flt-3, thrombopoietin (TPO), and IL-3 with and without OPN for 7 days. The cells were subsequently counted and analyzed in functional in vitro progenitor and stem cell assays. Addition of soluble OPN led to a lower total cell number with an unperturbed absolute number of CFCs representing hematopoietic progenitor cell activity (n=5) (FIG. 5A).
(§3) Mouse bone marrow was obtained from 8-12 week old 129/C57BL/6 OPN^+/+ and 129/C57BL/6 OPN^−/− mice, sacrificed with CO2. Bone marrow cell and spleen cell suspensions were flushed from femurs and tibias or take from spleen, filtered through 100 μm-mesh nylon cloth (Sefar America Inc., Kansas City, Mo.), and stored on ice until use. […]

[3] = tested on: Sca1+lin− bone marrow cells; experiment: Colony-forming cell (CFC) assay after 7 day culture with OPN; type: cell-based, mouse; conditions: after 7 days culture with OPN 1 μg/ml versus without OPN, n=5
Procedure: as §1, §2, §3

[4] = tested on: Sca1+lin− bone marrow cells; experiment: Limiting dilution LTC-IC assay after 7 day culture with OPN; type: cell-based, mouse; conditions: after 7 days culture with OPN 1 μg/ml; without OPN 35.9±5.14; P=0.002, n=5
Procedure: as §1
as §2, with “Addition of soluble OPN led to a lower total cell number with an unperturbed absolute number of CFCs representing hematopoietic progenitor cell activity (n=5) (FIG. 5A).” left out
To quantify the stem cells in the bone marrow and spleen cell suspension, the CAFC assay^36 was adapted with minor modifications as described in our previous publication^37. To measure long term culture-initiating cells (LTC-IC) the semisolid, cytokine containing methylcellulose medium for CFC was overlaid into the wells at week 5 and the colonies were counted at day ten. […]

Substance: PTH: rat PTH (1-34) (Bachem), parathyroid hormone used to activate niche osteoblasts (AVSEIQLMHNLGKHLASVERMQWLRKKLQDVHNF; Parathyroid hormone; UniProt P04089 32-65, looked up, fragment)
- Sca1+c-kit+lin− cells after PTH treatment (Sca1+c-kit+lin− cells; OPN null and wild type mice, 80 μg/Kg i.p. 5×/week for 4 weeks): increase
- magnitude of Sca1+c-kit+lin− increase induced by PTH, absolute number (Sca1+c-kit+lin− cells; OPN null mice): 5.94×10^4 stem cells per femur pair
- magnitude of Sca1+c-kit+lin− increase induced by PTH, proportion (Sca1+c-kit+lin− cells; OPN null mice): 10.0%
- magnitude of Sca1+c-kit+lin− increase induced by PTH, absolute number (Sca1+c-kit+lin− cells; wild type mice): 3.82×10^4 stem cells per femur pair
- magnitude of Sca1+c-kit+lin− increase induced by PTH, proportion (Sca1+c-kit+lin− cells; wild type mice): 7.5%

Substance: OPN: Osteopontin, a secreted, highly acidic glycoprotein; OPN protein was obtained from R&D Systems
- percentage of AnnexinV+7-AAD− cells in the lin− cell population [1]: higher percentage
- Jagged1 expression (RT-PCR, normalized to GAPDH) (Jagged1): statistically significantly reduced
- total cell number [2]: lower
- absolute number of CFCs [3]: unperturbed
- absolute number of LTC-ICs [4]: 16.41±4.5 LTC-ICs/well
